Experimental data from ChEMBL document CHEMBL3988442, “University of Dundee, Small-Polar-MMV Screening Library” (2021).

How the values were obtained:
[1] = microbe, parasite or virus in culture; conditions: Mycobacterium tuberculosis, 96 h, read-out: pIC50 (converted)
[2] = microbe, parasite or virus in culture; conditions: Mycobacterium tuberculosis, 72 h, read-out: pIC50 (converted)

| Compound | IC50 [1] [µM] | IC50 [2] [µM] |
| --- | --- | --- |
| Cc1cnc(NC(=O)c2cccc(CN(C)Cc3ccno3)c2)s1 | 37.3 | 36.1 |
| Cc1ccc(C)c(-n2cc(CN3CC[C@@H](O)C3)c(-c3ccccc3)n2)c1 | > 50.1 | 27.1 |
| COc1ccc(-c2cccc(-c3ccn(CCN(C)C)n3)c2)nn1 | 16.3 | 19.9 |
| Cc1nc(NCCSc2cnn[nH]2)c2c(C)noc2n1 | > 50.1 | > 50.1 |
| O=C(O)[C@@H]1CN(C(=O)NCC2CCCCC2)C[C@H]1c1ccccn1 | > 50.1 | > 50.1 |
| O=C1CCC2(CCN(Cc3cscn3)CC2)CN1CCCO | > 50.1 | > 50.1 |
| Cc1cn(Cc2nc(CC(C)C)nn2-c2ccccn2)c(=O)[nH]c1=O | > 50.1 | > 50.1 |
| O=C1NCC2(CCCN(C(=O)c3c[nH]nc3-c3cccs3)C2)O1 (stereo not drawn) | > 50.1 | > 50.1 |
| N[C@H]1CCCN(S(=O)(=O)c2ccc(C(=O)NCC(F)F)cc2)C1 | > 50.1 | > 50.1 |
| Cc1cc(CN2CCCC2)cc(Oc2ccc3c(c2)CC(CN)O3)c1 (stereo not drawn) | > 50.1 | > 50.1 |
| CSCCC1c2nc[nH]c2CCN1Cc1[nH]c2ccc(F)cc2c1C (stereo not drawn) | > 50.1 | > 50.1 |
| CCCc1cncnc1N1CCC(NCc2cc3ccccc3[nH]2)CC1 | 18.3 | 18.3 |
| COC(=O)c1cc(C)nc(N2CCN(Cc3cc(C(C)C)no3)CC2)n1 | > 50.1 | > 50.1 |
| Cc1ccc(N2CCN(C(=O)CCC(F)(F)F)C(C)C2)cc1 (stereo not drawn) | > 50.1 | > 50.1 |
| Cc1nc2c(c(N3CCC(CCn4cccn4)CC3)n1)CCNCC2 | > 50.1 | > 50.1 |
| CCCc1ccc2oc(C(=O)N3CCN(CCOC)CC3)c(C)c2c1 | 4.11 | 4.94 |
| C=Cc1ccc(CN2C(=O)C3(CCNCC3)Nc3ccccc32)cc1 | 26.5 | 28.2 |
| O=S(=O)(NCCNc1ccc(-n2cccn2)nn1)c1ccccc1 | 15.9 | 24.9 |
| CS(=O)(=O)CCC(=O)N1C[C@@H]2CC[C@H](C1)N(Cc1ccccc1)C2=O | > 50.1 | > 50.1 |
| CCc1cc(CN(C)C(=O)c2cnon2)on1 | > 50.1 | > 50.1 |
| Cn1cc(CN2CC[C@@H]3[C@@H](CCC(=O)N3CCC3=CCCCC3)C2)cn1 | > 50.1 | > 50.1 |
| O=C(c1cc[nH]n1)N1CCCC(c2cccc(-n3ccnc3)n2)C1 (stereo not drawn) | > 50.1 | > 50.1 |
| Cc1nc(-c2cccc(C(=O)O)c2)cc(C2CCN(C(C)C)C2)n1 (stereo not drawn) | > 50.1 | > 50.1 |
| Cc1ccc(-c2noc(CN3CC(n4cc(C)cn4)C3)n2)cc1 | 22.6 | 49.1 |
| NC(=O)c1cc(C2CCCN(C(=O)CCc3ccncc3)C2)n[nH]1 (stereo not drawn) | > 50.1 | > 50.1 |

| Compound | IC50 [1] [µM] | IC50 [2] [µM] |
| --- | --- | --- |
| CNc1cc2c(nn1)CCN(C(=O)c1cccc3c1OCCO3)C2 | > 50.1 | > 50.1 |
| O=C(NCc1ccco1)N1CCN(Cc2ccc3c(c2)CCO3)CC1 | 5.53 | 11.4 |
| CCc1nnc2n1CCN(C(=O)CN(CC)CC)C2 | > 50.1 | > 50.1 |
| Cc1ccc(C(=O)N2CCCC(c3cc(C(F)(F)F)[nH]n3)C2)o1 (stereo not drawn) | 26.2 | 15.4 |
| Cn1c(C2CC2)nc2c1CCN(Cc1nc(-c3ccsc3)no1)C2 | > 50.1 | 16.2 |
| CCc1nc(C2CCCN(C(=O)c3ccccc3Cl)C2)no1 (stereo not drawn) | > 50.1 | 23.9 |
| CC(C)c1noc(CN2CCN(C(=O)c3ccc(F)cc3)CC2)n1 | > 50.1 | > 50.1 |
| O=C(c1cc(C2CC2)[nH]n1)N1CCN(Cc2ccc3c(c2)OCO3)CC1 | 10.3 | 9.81 |
| Cc1ccc(NC2CCN(C(=O)C(C)n3cncn3)CC2)nn1 (stereo not drawn) | > 50.1 | > 50.1 |
| CCc1nnc2n1CCN(C(C(=O)NC1CC1)c1ccccc1)C2 (stereo not drawn) | > 50.1 | > 50.1 |
| CSCc1ccc(C(=O)NCCCNc2ccc(C(F)(F)F)cn2)cc1 | > 50.1 | > 50.1 |
| CC(=O)NCc1ccc(C(=O)NC2CCc3nc(C)cn3C2)o1 (stereo not drawn) | > 50.1 | > 50.1 |
| COCC(=O)NC(C)Cc1cccc(Cl)c1 (stereo not drawn) | 18.5 | 11.2 |
| Fc1ccccc1-c1nc(CNCCn2cccn2)cs1 | > 50.1 | > 50.1 |
| Cc1ccc(-c2nc(CNC(C)Cn3cccn3)cs2)o1 (stereo not drawn) | > 50.1 | > 50.1 |
| Cc1nc(C2CCCN(C(=O)c3cc4c(s3)CCCC4)C2)no1 (stereo not drawn) | 11.7 | 40.8 |
| Cc1cnn(CC2CCCN2Cc2ncc(-c3ccc(F)cc3)o2)c1 (stereo not drawn) | > 50.1 | 27 |
| CC(C)(C)c1nc(CN2CCC(c3ccnn3CCO)CC2)no1 | > 50.1 | > 50.1 |
| CN(Cc1nc2ccccc2o1)C1CCCN(c2cccnn2)C1 (stereo not drawn) | > 50.1 | > 50.1 |
| CCc1nc(CN(C)C2CCN(CCC(=O)N3CCCCC3)C2)no1 (stereo not drawn) | > 50.1 | > 50.1 |
| CC(C)OCc1cccc(CNc2cnn(C)c(=O)c2Cl)c1 | 5.63 | 19.1 |
| COCCN1CCC(CNCc2c[nH]nc2C(C)(C)C)CC1 | > 50.1 | 39.9 |
| Cc1cnn(CC2CN(Cc3nc4ccccc4s3)CCO2)c1 (stereo not drawn) | 14.7 | 34.7 |
| CN(Cc1nnc2n1CCC2)C(=O)c1ccc2c(c1)OCCCO2 | > 50.1 | > 50.1 |
| Cc1csc(N2CCN(C(=O)c3ccc(C)s3)CC2)n1 | 15.5 | > 50.1 |

| Compound | IC50 [1] [µM] | IC50 [2] [µM] |
| --- | --- | --- |
| COc1ccc(COCC(=O)N2CCCC(n3cncn3)C2)cc1 (stereo not drawn) | > 50.1 | > 50.1 |
| CCn1ccnc1CN1CCCC1Cn1cc(C)cn1 (stereo not drawn) | > 50.1 | 46.3 |
| Cc1nc(C2CCCN(C(=O)c3ccc(S(C)(=O)=O)cc3)C2)no1 (stereo not drawn) | > 50.1 | > 50.1 |
| O=C(NCCNc1ccc(C(F)(F)F)cn1)c1ccc(Cl)cc1F | 19.3 | 25.1 |
| CC(CCc1ccco1)NC(=O)Nc1cc(C(F)(F)F)c[nH]c1=O (stereo not drawn) | 43.3 | 15.9 |
| O=C(NCC1CC1)N1CCN(Cc2ccc3c(c2)OCCO3)CC1 | 17.9 | 45.6 |
| Cc1nccn1C1CCCN(C(=O)c2ccc(N3CCCC3)nn2)C1 (stereo not drawn) | > 50.1 | > 50.1 |
| N#CC1(C(=O)NCCCNc2ccc(C(F)(F)F)cn2)CCCC1 | 1.69 | 0.198 |
| COc1cc(C(=O)Nc2nc(C)no2)ccc1C | > 50.1 | > 50.1 |
| CCc1c(C(=O)NCC(=O)OCC2CC2)cnn1-c1ccc(C)cc1 | 18.9 | 45.9 |
| NC(=O)NC(=O)CCN1CCCN(c2nccs2)CC1 | 25.1 | 35.5 |
| CCOCCN1CCn2c(C)nnc2C1 | > 50.1 | > 50.1 |
| Cc1cnn(C2CCCN(C(=O)c3ccnc(N(C)C)c3)C2)c1 (stereo not drawn) | > 50.1 | > 50.1 |
| CC(Cn1cccn1)NCc1csc(-c2ccccc2F)n1 (stereo not drawn) | 4.59 | 10.4 |
| OCC1CCCN1c1cc(N2CCC(OC3CCCC3)CC2)ncn1 (stereo not drawn) | 13.8 | 15.5 |
| CC(C)c1nccn1C1CCCN(C(=O)c2ccc3[nH]nnc3c2)C1 (stereo not drawn) | > 50.1 | > 50.1 |
| CC(C)c1nnc2n1CCN(C(=O)c1ccc(-n3cnnc3)cc1)C2 | > 50.1 | > 50.1 |
| O=C(Cc1ccc(-n2cccn2)cc1)N1CCCC(n2cccn2)C1 (stereo not drawn) | > 50.1 | > 50.1 |
| O=C(Cc1ccc2c(c1)OCCO2)N1CCCC(n2ccnc2)C1 (stereo not drawn) | > 50.1 | > 50.1 |
| CCN1CCC(CNCc2c[nH]nc2C(C)(C)C)C1 (stereo not drawn) | 16.4 | > 50.1 |
| O=C(NCCN1CCCC1)c1ccc2ccccc2n1 | 249 | 146 |
| COc1ccc(NC(C(N)=O)c2ccc(Br)cc2)cn1 (stereo not drawn) | 198 | 148 |
| CCNc1nnc(SC(C)C)s1 | 54.2 | 120 |
| COc1cc(OC)cc(C2(F)CCNCC2)c1 | 287 | 226 |
| Cc1ccc(S(=O)(=O)N2CCC[C@@H](N)C2)c(C)c1 | 276 | 219 |

| Compound | IC50 [1] [µM] | IC50 [2] [µM] |
| --- | --- | --- |
| CCNC(=O)CNc1ccc(Br)cc1 | 210 | 162 |
| O[C@@H]1CNC[C@H]1n1ccnn1 | 289 | 286 |
| O=C1NCC(C(=O)NCCCc2ccc(Cl)cc2)N1 (stereo not drawn) | > 501 | > 501 |
| NCCc1nc(-c2ccccn2)cs1 | 1.16 | 2.67 |
| CC(C)CCNC(=O)CCn1cc(Br)ccc1=O | 105 | 142 |
| C=C(C)Cn1c(S(C)(=O)=O)nc2ccccc21 | > 501 | 135 |
| c1cncc(-c2nc(SCC3CCCCO3)n[nH]2)c1 (stereo not drawn) | > 501 | 229 |
| COc1ccccc1OCC(C)CN (stereo not drawn) | 123 | 82.9 |
| O=C(NCC1CCN(C2CC2)C1)c1ccccc1F (stereo not drawn) | 376 | 423 |
| COCC(C)(CCO)NCC(=O)Nc1ccccc1I (stereo not drawn) | > 501 | 238 |
| COc1cccc(S(=O)(=O)CCN2CCN(C)CC2)c1 | > 501 | > 501 |
| CNc1cccnc1N1CCCC1 | 41.3 | 22 |
| Cc1nnc(SCc2ccc(Cl)s2)n1CC(N)=O | > 501 | > 501 |
| CC[C@H](N)C(=O)N(C)CCOc1cccc(Cl)c1 | 263 | 377 |
| Cc1cc(OCC(=O)NCc2ccccc2F)no1 | 118 | 73.3 |
| CN(C1CCCC1)S(=O)(=O)NCCNc1ccccn1 | 189 | 94.1 |
| CN1CCCN(C(=O)COc2cccc(Cl)c2)CC1 | > 501 | 283 |
| COc1ccc(N2CCCNCC2)cc1 | 276 | 308 |
| CC(=O)c1sc(NCCc2ccccn2)nc1C | > 501 | > 501 |
| CCc1ccc(NC(=O)CN2CC[C@@H](N)C2)cc1 | > 501 | 199 |
| COc1cc(N2CCNCC2)ccc1F | > 501 | 281 |
| NCCc1nc(-c2cccc(Cl)c2)no1 | 190 | 122 |
| Brc1cccc2c1CNCCO2 | > 501 | 213 |
| OCCC1COc2ccc(F)cc2N1 (stereo not drawn) | > 501 | > 501 |
